Type in all cases: in vivo
In experiment [1] the test system is rats with experimental arthritis. Nature of the experiment: Primary connective tissue metabolites in blood serum, rat model of systemic steroid (dexamethasone) arthritis. Conditions: Day 56, daily i.m. 4 weeks, 50 mg/kg. The text has this:
Example 2. A study of the chondroprotective activity of a composition comprising peptides Lys-Asp-Glu, Ala-Asp-Glu, Asp-Glu-Gly, and an agent comprising peptides Lys-Asp-Glu, Ala-Asp-Glu, Asp-Glu-Gly and chondroitin sulfate and/or glucosamine sulfate using a rat-based model of systemic steroid arthritis.
Lyophilized powder consisting of peptides Lys-Asp-Glu, Ala-Asp-Glu, Asp-Glu-Gly was used to obtain the preparation for intramuscular injections.
The daily dose of the composition comprising peptides Lys-Asp-Glu, Ala-Asp-Glu, Asp-Glu-Gly was 50 µg/kg (at a weight ratio of the peptides of 1:1:1), 150 µg/kg (at a weight ratio of the peptides of 1:2:1), 300 µg/kg (at a weight ratio of the peptides of 0.1:1:10) or 600 µg/kg (at a weight ratio of the peptides of 1:1:3).
The daily dose of the composition comprising peptides Lys-Asp-Glu, Ala-Asp-Glu, Asp-Glu-Gly and glucosamine sulfate or chondroitin sulfate was 150 µg/kg of the peptides (at a weight ratio of the peptides of 1:2:1) and 50 mg/kg of glucosamine sulfate or chondroitin sulfate, or 300 µg/kg of the peptides (at a weight ratio of the peptides of 0.1:1:10) and 50 mg/kg of glucosamine sulfate or chondroitin sulfate, or 600 µg/kg of the peptides (at a weight ratio of the peptides of 1:1:3) and 50 mg/kg of glucosamine sulfate or chondroitin sulfate. […]
The study was conducted using white outbred male rats 4-5 months of age weighing 250-300 g obtained from the same litter (same age and weight, with normal primary clinical and biochemical analyses parameters). […] The first signs of the arthropathy were detected as early as week 2 of the experiment.
Starting from day 28 of the experiment, all animals received corresponding intramuscular doses of the preparations on a daily basis over 4 weeks. The degree of activity of the pathological process was evaluated using biochemical blood test parameters. […]
Clinical observation of the animals was implemented throughout the study; the functional state of the rat joints was monitored (degree of mobility, resistance to stress, swelling, hyperaemia). […]

Experiment [2] has as its system articular cartilages of the knee joints of the rats. Nature of the experiment: Histomorphological and morphometric study of the articular cartilages of the knee joints (light microscopy, scoring system). As to the method: The study was conducted using white outbred male rats 4-5 months of age weighing 250-300 g obtained from the same litter (same age and weight, with normal primary clinical and biochemical analyses parameters). Modeling of steroid arthritis was achieved by three single intramuscular injections of dexamethasone administered at an interval of 1 week at a dose of 7 mg/kg. The first signs of the arthropathy were detected as early as week 2 of the experiment.
Starting from day 28 of the experiment, all animals received corresponding intramuscular doses of the preparations on a daily basis over 4 weeks. The degree of activity of the pathological process was evaluated using biochemical blood test parameters. The following biochemical parameters were used as the parameters for evaluation of the intensity of progression of the pathological process in the experimental groups: the contents of sialic acids, glycoproteins, and chondroitin sulfates in the serum, as these parameters reflect the intensity of progression of the degenerative-dystrophic processes in the connective tissue.
Clinical observation of the animals was implemented throughout the study; the functional state of the rat joints was monitored (degree of mobility, resistance to stress, swelling, hyperaemia). The animals were decapitated under ether anesthesia at the end of the study (on day 56) to harvest biomaterials for biochemical and histomorphological studies.
In order to investigate the chondroprotective activity of the composition, a study of the condition of the morpho- and ultrastructure of the articular cartilages of the knee joints of the rats was carried out on day 56 of the experiment.
The histomorphological investigation of the articular cartilages was carried out using standard light microscopy techniques.
The morphometric measurements were carried out using an ocular micrometer: the cartilage thickness was determined using slide mounts; the measurements were taken at 3 individual points - the central part of the head, and the upper and lower edges. The thickness of the articular cartilages was expressed in conventional units. The density of chondrocytes per conventional unit area was also estimated. Statistical processing of the digital data obtained was performed using Student's t-test and non-parametric methods of analysis (Mann-Whitney U Test). […]

The subject of experiment [3] is articular cartilages of rats with experimental arthritis. The experiment is described as follows: Electron microscopic study of the ultrastructure of the articular cartilages. Conditions: 50 mg/kg. The method, then: The study of the ultrastructure of the articular cartilages of the rats was performed using conventional electron microscopy techniques.
For experiment [4], the system named is patients with degenerative-dystrophic diseases of the joints. The experiment is described as follows: Clinical administration to patients with joint disease (first group). The conditions noted are these: 500 mg, tablets twice a day three weeks then once daily. The method, then: (§1) Example 3. Administration of the peptide composition and the peptide composition in combination with glucosamine sulfate and/or chondroitin sulfate to patients with degenerative-dystrophic diseases of the joints and the spine.
(§2) The studies were carried out in a group patients aged 40 - 65 years.
The first group (50 patients) was characterized by stiffness in the joints, as well as puffiness or swelling in the joints, which was manifested in the appearance of pain of varying intensity and duration.
A total of 15 patients in the first group were exposed to the peptide composition administered at a dose of 150 µg; 7 patients received glucosamine sulfate at a dose of 500 mg; 10 patients were treated with the composition of the peptides administered at a dose of 150 µg, glucosamine sulfate at a dose of 500 mg, and chondroitin sulfate at a dose of 50 mg; and 18 patients received the composition of the peptides administered at a dose of 150 µg and glucosamine sulfate at a dose of 500 mg in the form of tablets twice a day over the first three weeks and then once daily for up to 6 months. A sustained therapeutic effect associated with administration of glucosamine sulfate was achieved after at least 6 months of therapy. […]

Experiment [5] relates to patients with degenerative process occurring in the intervertebral joints and intervertebral discs. The experiment is described as follows: Clinical administration to patients with degenerative process of the spine (second group). The conditions noted are these: 50 mg intramuscularly daily, 30 injections. The method, then:
as §1, §2
The second group (30 patients) was characterized by the degenerative process occurring in the intervertebral joints and intervertebral discs accompanied by deformation of the intervertebral discs and formation of osteophytes, which was manifested in the appearance of pain of varying intensity and duration.
A total of 10 patients in the second group received the peptide composition at a dose of 300 µg; 9 patients received glucosamine sulfate at a dose of 50 mg; and 11 patients received the composition of the peptides at a dose of 300 µg and glucosamine sulfate at a dose of 50 mg administered intramuscularly on a daily basis. The treatment course comprised 30 injections. A therapeutic effect associated with administration of glucosamine sulfate was achieved after at least 1 month of therapy. […]

The structures appear in SMILES notation.

For the molecule `N[C@H]1C(O)O[C@H](CO)[C@@H](O)[C@@H]1O.O=S(=O)(O)O` (stereo partly shown) [Glucosamine sulfate], in experiment [1], the Chondroitin sulfate came to 0.400 ± 0.027 g/L, the Glycoproteins turned out to be 3.59 ± 0.29 g/L and the Sialic acids amounted to 4.27 ± 0.34 mmol/L. Further, the “morphology of the joints (slide mounts)” value in experiment [2] (50 mg/kg) is reported as “improvement of the morphology in comparison to the control pathology animal group”. Moreover, in experiment [2] (day 56, 50 mg/kg), the Cartilage thickness worked out at 14.10±1.06 conventional units, the “Cell density per conventional unit area” value is 23.79±1.80 and the “Total score according to the cartilage condition evaluation system” value was 16.2±1.3. Further, the “ultrastructure of the cartilages” value in experiment [3] is “normalization of the ultrastructure of the cartilages accompanied by moderate degenerative-dystrophic manifestations in chondrocytes”. For the same molecule, in experiment [4], the “therapy duration until sustained therapeutic effect” value is “at least 6 months”. The “therapy duration until therapeutic effect” value in experiment [5] is given as “at least 1 month”.

These data come from EP3189848B1, “A COMPOSITION COMPRISING TRIPEPTIDES FOR THE TREATMENT OF DISEASES OF THE JOINTS AND THE SPINE” (Zamerton Holdings Limited, priority 2014, dated 2016).
